Data reported in patent US10442807B2, “Aryl substituted bicyclic compounds as herbicides” (FMC Corporation, priority 2015, dated 2019).

Key:
Type in all cases: in vivo
[1] = tested on: rice (Oryza sativa); test: Test B flooded paddy test, visual plant response rating; conditions: 250 g ai/ha; applied to paddy water at 2-leaf stage; rated after 13 to 15 days; scale 0 to 100, 0 is no effect, 100 is complete control
Summary of the method: (§1)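 Visual injury score 0 to 100 against controls (0 = no effect, 100 = complete control), taken 13–15 days after treatment. Test compound went into the paddy water of pots flooded 3 cm over the soil surface, water kept at that depth in greenhouse.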

[2] = tested on: sedge, umbrella (small-flower umbrella sedge, Cyperus difformis); test: as above; conditions: 250 g ai/ha; applied to paddy water at 2-leaf stage; rated after 13 to 15 days; scale 0 to 100, 0 is no effect, 100 is complete control
Summary of the method: as §1

[3] = tested on: barnyardgrass (Echinochloa crus-galli); test: as above; conditions: 250 g ai/ha; applied to paddy water at 2-leaf stage; rated after 13 to 15 days; scale 0 to 100, 0 is no effect, 100 is complete control
Summary of the method: as §1

[4] = tested on: ducksalad (Heteranthera limosa); test: as above; conditions: 250 g ai/ha; applied to paddy water at 2-leaf stage; rated after 13 to 15 days; scale 0 to 100, 0 is no effect, 100 is complete control
Summary of the method: as §1

[5] = tested on: pigweed (Amaranthus retroflexus); test: Test A preemergence, directed soil spray, visual injury rating; conditions: approx. 10 d, 0 = no effect, 100 = complete control
Summary of the method: (§2)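 In a loam soil and sand blend, either planted seeds got a preemergence directed soil spray or plants at the one- to two-leaf stage (2 to 10 cm tall) were sprayed, using test chemicals in a non-phytotoxic solvent mixture with surfactant. After about 10 d in a greenhouse, injury was visually rated against untreated controls on a 0-100 scale.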

[6] = tested on: ryegrass, Italian (Italian ryegrass, Lolium multiflorum); test: as above; conditions: approx. 10 d, 0 = no effect, 100 = complete control
Summary of the method: as §2

[7] = tested on: foxtail, giant (giant foxtail, Setaria faberii); test: as above; conditions: approx. 10 d, 0 = no effect, 100 = complete control
Summary of the method: as §2

[8] = tested on: barnyardgrass (Echinochloa crus-galli); test: as above; conditions: approx. 10 d, 0 = no effect, 100 = complete control
Summary of the method: as §2

[9] = tested on: kochia (Kochia scoparia); test: as above; conditions: approx. 10 d, 0 = no effect, 100 = complete control
Summary of the method: as §2

[10] = tested on: ragweed (common ragweed, Ambrosia elation); test: as above; conditions: approx. 10 d, 0 = no effect, 100 = complete control
Summary of the method: as §2

[11] = tested on: wheat (Triticum aestivum); test: Test A postemergence application, visual injury rating; conditions: approx. 10 d, 0 = no effect, 100 = complete control
Summary of the method: as §2

[12] = tested on: pigweed (Amaranthus retroflexus); test: as above; conditions: approx. 10 d, 0 = no effect, 100 = complete control
Summary of the method: as §2

[13] = tested on: blackgrass (Alopecurus myosuroides); test: as above; conditions: approx. 10 d, 0 = no effect, 100 = complete control
Summary of the method: as §2

[14] = tested on: ryegrass, Italian (Italian ryegrass, Lolium multiflorum); test: as above; conditions: approx. 10 d, 0 = no effect, 100 = complete control
Summary of the method: as §2

[15] = tested on: corn (Zea mays); test: as above; conditions: approx. 10 d, 0 = no effect, 100 = complete control
Summary of the method: as §2

[16] = tested on: foxtail, giant (giant foxtail, Setaria faberii); test: as above; conditions: approx. 10 d, 0 = no effect, 100 = complete control
Summary of the method: as §2

[17] = tested on: galium (catchweed bedstraw, Galium aparine); test: as above; conditions: approx. 10 d, 0 = no effect, 100 = complete control
Summary of the method: as §2

[18] = tested on: barnyardgrass (Echinochloa crus-galli); test: as above; conditions: approx. 10 d, 0 = no effect, 100 = complete control
Summary of the method: as §2

[19] = tested on: kochia (Kochia scoparia); test: as above; conditions: approx. 10 d, 0 = no effect, 100 = complete control
Summary of the method: as §2

[20] = tested on: ragweed (common ragweed, Ambrosia elation); test: as above; conditions: approx. 10 d, 0 = no effect, 100 = complete control
Summary of the method: as §2

SMILES | Plant response rating, Flood, Rice [1] | Plant response rating, Flood, Sedge, Umbrella [2] | Plant response rating, Flood, Barnyardgrass [3] | Plant response rating, Flood, Ducksalad [4] | Pigweed plant response rating (0 to 100 scale) ([5]; 125 g ai/ha) | Pigweed plant response rating (0 to 100 scale) ([5]; 500 g ai/ha) | Ryegrass, Italian plant response rating (0 to 100 scale) ([6]; 125 g ai/ha) | Ryegrass, Italian plant response rating (0 to 100 scale) ([6]; 500 g ai/ha) | Foxtail, Giant plant response rating (0 to 100 scale) ([7]; 125 g ai/ha) | Foxtail, Giant plant response rating (0 to 100 scale) ([7]; 500 g ai/ha) | Barnyardgrass plant response rating (0 to 100 scale) ([8]; 125 g ai/ha) | Barnyardgrass plant response rating (0 to 100 scale) ([8]; 500 g ai/ha) | Kochia plant response rating (0 to 100 scale) ([9]; 125 g ai/ha) | Kochia plant response rating (0 to 100 scale) ([9]; 500 g ai/ha) | Ragweed plant response rating (0 to 100 scale) ([10]; 125 g ai/ha) | Ragweed plant response rating (0 to 100 scale) ([10]; 500 g ai/ha) | Wheat plant response rating (0 to 100 scale) ([11]; 125 g ai/ha) | Wheat plant response rating (0 to 100 scale) ([11]; 500 g ai/ha) | Pigweed plant response rating (0 to 100 scale) ([12]; 125 g ai/ha) | Pigweed plant response rating (0 to 100 scale) ([12]; 500 g ai/ha) | further results
CCc1ccc(C2Cn3cnnc3C2C(=O)Nc2ccccc2SC)cc1 (stereo not drawn) [Compound 25] | 0 | 0 | 0 | 65 | 0 | 0 | 0 | 0 | 0 | 40 | 0 | 40 | 0 | 20 | 0 | 0 | 0 | 0 | 0 | 0 | Blackgrass plant response rating (0 to 100 scale) ([13]; 125 g ai/ha): 0; Blackgrass plant response rating (0 to 100 scale) ([13]; 500 g ai/ha): 0; Ryegrass, Italian plant response rating (0 to 100 scale) ([14]; 125 g ai/ha): 0; Ryegrass, Italian plant response rating (0 to 100 scale) ([14]; 500 g ai/ha): 0; Corn plant response rating (0 to 100 scale) ([15]; 125 g ai/ha): 0; Corn plant response rating (0 to 100 scale) ([15]; 500 g ai/ha): 0; Foxtail, Giant plant response rating (0 to 100 scale) ([16]; 125 g ai/ha): 0; Foxtail, Giant plant response rating (0 to 100 scale) ([16]; 500 g ai/ha): 30; Galium plant response rating (0 to 100 scale) ([17]; 125 g ai/ha): 0; Galium plant response rating (0 to 100 scale) ([17]; 500 g ai/ha): 0; Barnyardgrass plant response rating (0 to 100 scale) ([18]; 125 g ai/ha): 20; Barnyardgrass plant response rating (0 to 100 scale) ([18]; 500 g ai/ha): 30; Kochia plant response rating (0 to 100 scale) ([19]; 125 g ai/ha): 30; Kochia plant response rating (0 to 100 scale) ([19]; 500 g ai/ha): 30; Ragweed plant response rating (0 to 100 scale) ([20]; 125 g ai/ha): 0; Ragweed plant response rating (0 to 100 scale) ([20]; 500 g ai/ha): 0
Cc1ccc(C2Cn3cnnc3C2C(=O)Nc2cccc(F)c2C)cc1C (stereo not drawn) [Compound 26] | 20 | 0 | 0 | 85 | 0 | 0 | 0 | 50 | 80 | 90 | 60 | 90 | 20 | 30 | 0 | 0 | 30 | 0 | 0 | 0 | Blackgrass plant response rating (0 to 100 scale) ([13]; 125 g ai/ha): 0; Blackgrass plant response rating (0 to 100 scale) ([13]; 500 g ai/ha): 50; Ryegrass, Italian plant response rating (0 to 100 scale) ([14]; 125 g ai/ha): 0; Ryegrass, Italian plant response rating (0 to 100 scale) ([14]; 500 g ai/ha): 20; Corn plant response rating (0 to 100 scale) ([15]; 125 g ai/ha): 20; Corn plant response rating (0 to 100 scale) ([15]; 500 g ai/ha): 0; Foxtail, Giant plant response rating (0 to 100 scale) ([16]; 125 g ai/ha): 50; Foxtail, Giant plant response rating (0 to 100 scale) ([16]; 500 g ai/ha): 80; Galium plant response rating (0 to 100 scale) ([17]; 125 g ai/ha): 30; Galium plant response rating (0 to 100 scale) ([17]; 500 g ai/ha): 0; Barnyardgrass plant response rating (0 to 100 scale) ([18]; 125 g ai/ha): 50; Barnyardgrass plant response rating (0 to 100 scale) ([18]; 500 g ai/ha): 80; Kochia plant response rating (0 to 100 scale) ([19]; 125 g ai/ha): 0; Kochia plant response rating (0 to 100 scale) ([19]; 500 g ai/ha): 0; Ragweed plant response rating (0 to 100 scale) ([20]; 125 g ai/ha): 0; Ragweed plant response rating (0 to 100 scale) ([20]; 500 g ai/ha): 0
